The values that follow come from US20230265151A1, “GIP/GLP1 CO-AGONIST COMPOUNDS” (priority 2020, published 2023).

Assay [1] concerns the target T1, human GIP receptor (hGIPR) (Homo sapiens, UniProt P48546).
T1 construct: expressed in transfected cells; crude membranes
T1 sequence (P48546 22-466): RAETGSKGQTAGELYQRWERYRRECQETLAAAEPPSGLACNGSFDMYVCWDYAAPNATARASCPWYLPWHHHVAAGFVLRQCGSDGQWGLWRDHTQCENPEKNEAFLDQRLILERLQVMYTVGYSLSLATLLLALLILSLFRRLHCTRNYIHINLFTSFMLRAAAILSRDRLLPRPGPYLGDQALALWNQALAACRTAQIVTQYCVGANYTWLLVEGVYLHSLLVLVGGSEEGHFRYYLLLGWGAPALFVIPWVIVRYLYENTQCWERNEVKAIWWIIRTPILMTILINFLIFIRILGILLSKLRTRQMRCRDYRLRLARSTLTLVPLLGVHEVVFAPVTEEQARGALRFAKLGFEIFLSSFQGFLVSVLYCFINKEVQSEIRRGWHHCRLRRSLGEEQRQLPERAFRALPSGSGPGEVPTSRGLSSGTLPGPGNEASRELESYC
Briefly: [125I]-GIP binding, SPA with membranes of CHO cells expressing hGIPR.

A further assay concerns the target T2, hGIPR (Homo sapiens, UniProt P48546).
T2 construct: expressed in transfected cells
T2 sequence (P48546 22-466): T1 sequence (P48546 22-466)
Briefly: Functional cAMP formation (HTRF) in HEK-293 clonal cells expressing hGIPR, 0.1% bovine casein, without or with 1.0% human serum albumin. The settings on record: 37° C.; for Emax: percent of maximal response to GIP(1-42)NH2, read-out: hGIPR Emax, % ± SEM; for EC50: cAMP, 0.1% bovine casein (no human serum albumin), geometric mean. It is filed as cell-based. A digest of the protocol: (§1)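 Cells were stimulated with peptide for 30 min at 37° C, then intracellular cAMP was measured by competitive HTRF (665/620 nm ratio) and converted to nM using a cAMP standard curve. Relative EC50 and Emax came from four-parameter logistic fits of percent maximal response against peptide concentration.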
For orientation: cAMP levels reflect the balance of adenylyl cyclase and phosphodiesterase activity.

The target in assay [2] is T3, human GLP-1 receptor (hGLP-1R) (Homo sapiens, UniProt P43220).
T3 construct: expressed in transfected cells; crude membranes
T3 sequence (P43220 24-463): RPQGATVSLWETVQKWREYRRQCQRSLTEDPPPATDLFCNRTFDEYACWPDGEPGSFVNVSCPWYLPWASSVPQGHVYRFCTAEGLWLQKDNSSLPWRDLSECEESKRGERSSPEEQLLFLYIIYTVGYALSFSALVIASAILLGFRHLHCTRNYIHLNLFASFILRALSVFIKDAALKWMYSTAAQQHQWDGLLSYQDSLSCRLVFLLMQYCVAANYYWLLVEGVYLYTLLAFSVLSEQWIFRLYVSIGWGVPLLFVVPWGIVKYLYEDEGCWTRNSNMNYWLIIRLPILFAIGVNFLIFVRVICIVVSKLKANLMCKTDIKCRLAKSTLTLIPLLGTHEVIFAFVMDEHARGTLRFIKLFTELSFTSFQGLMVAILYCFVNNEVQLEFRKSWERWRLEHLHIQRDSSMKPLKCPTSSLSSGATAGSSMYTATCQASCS
Briefly: [125I]-GLP-1 binding, SPA with membranes of HEK293 cells expressing hGLP-1R.

In the next assay the target is hGLP-1R (Homo sapiens, UniProt P43220). Briefly: Functional cAMP formation (HTRF) in HEK-293 clonal cells expressing hGLP-1R, 0.1% bovine casein, without or with 1.0% human serum albumin. It is filed as cell-based. Set-up: expressed in transfected cells. The settings on record: for EC50: geometric mean; for Emax: percent of maximal response to GLP-1(7-36)NH2. Summed up:
as §1

Another assay concerns the target T4, hGCGR (Homo sapiens, UniProt P47871).
T4 construct: expressed in transfected cells
Briefly: Functional cAMP formation (HTRF) in HEK-293 clonal cells expressing hGCGR, 0.1% bovine casein, without or with 1.0% human serum albumin. It is filed as cell-based. A digest of the protocol:
as §1

Setting [3] is: human GIPR, geometric mean (SEM, n), read-out: Binding Affinity Ki, nM (SEM, n) hGIPR.
Setting [4] is: human GLP-1R, geometric mean (SEM, n), read-out: Binding Affinity Ki, nM (SEM, n) hGLP-1R.
Where [5] appears, read: HEK293, cAMP, 0.1% bovine casein and 1.0% human serum albumin.
Where [6] appears, read: read-out: hGIPR EC50, nM (SEM, n).
The mark [7] stands for this setting: cAMP, 37° C., 0.1% bovine casein (no human serum albumin), read-out: hGLP-1R EC50, nM (SEM, n).
[8] abbreviates: cAMP, 37° C., 0.1% bovine casein (no human serum albumin), geometric mean, read-out: hGCGR EC50, nM (SEM, n).
Where [9] appears, read: cAMP, 37° C., 0.1% bovine casein and 1.0% human serum albumin, geometric mean (SEM, n), read-out: hGCGR EC50, nM (SEM, n).

Read-outs that look alike come from different tables or passages of the source.

As a reminder, the Ki is the dissociation constant of the complex between target and ligand, obtained from inhibition or displacement. The Emax is the maximal effect, on the per cent scale that the assay sets. As usually defined, the EC50 is the concentration that produces a half-maximal response.

T4 sequence (P47871 26-477): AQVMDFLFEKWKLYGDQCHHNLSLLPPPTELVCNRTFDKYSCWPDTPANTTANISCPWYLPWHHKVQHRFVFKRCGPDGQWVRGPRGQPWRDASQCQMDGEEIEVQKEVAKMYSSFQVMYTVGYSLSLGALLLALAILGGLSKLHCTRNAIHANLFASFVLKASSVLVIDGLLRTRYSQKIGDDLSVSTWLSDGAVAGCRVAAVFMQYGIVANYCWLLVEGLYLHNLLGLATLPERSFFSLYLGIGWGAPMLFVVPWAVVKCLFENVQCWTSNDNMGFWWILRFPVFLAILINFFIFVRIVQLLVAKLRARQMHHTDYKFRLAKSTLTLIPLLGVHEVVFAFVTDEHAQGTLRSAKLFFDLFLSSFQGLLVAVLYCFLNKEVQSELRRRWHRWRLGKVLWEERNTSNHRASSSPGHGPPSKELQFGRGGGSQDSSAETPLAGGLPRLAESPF
Chain of hGLP-1R (P43220 24-463): as the sequence (P43220 24-463) above

Consider `CCCCCCCCCCCCCCCC(=O)N[C@@H](CCC(=O)NCCOCCOCC(=O)NCCOCCOCC(=O)NCCCC[C@H](NC(=O)[C@H](CCCN)NC(=O)[C@H](CC(=O)O)NC(=O)[C@H](CC(C)C)NC(=O)[C@](C)(CC(C)C)NC(=O)[C@@H](NC(=O)[C@H](CO)NC(=O)[C@H](Cc1ccncc1)NC(=O)[C@H](CC(=O)O)NC(=O)[C@H](CO)NC(=O)[C@@H](NC(=O)[C@](C)(Cc1ccccc1F)NC(=O)[C@@H](NC(=O)CNC(=O)[C@H](CCC(=O)O)NC(=O)C(C)(C)NC(=O)[C@@H](N)Cc1ccc(O)cc1)[C@@H](C)O)[C@@H](C)O)[C@@H](C)CC)C(=O)N[C@@H](C)C(=O)N[C@@H](CCC(N)=O)C(=O)NC(C)(C)C(=O)N[C@@H](CCC(=O)O)C(=O)N[C@@H](Cc1ccccc1)C(=O)N[C@H](C(=O)N[C@H](CCC(=O)O)C(=O)N[C@@](C)(Cc1ccc(O)cc1)C(=O)N[C@@H](CC(C)C)C(=O)N[C@H](C(=O)N[C@@H](CCC(=O)O)C(=O)NCC(=O)N[C@@H](CCCCNC(=O)COCCOCCNC(=O)COCCOCCNC(=O)CC[C@H](NC(=O)CCCCCCCCCCCCCCC)C(=O)O)C(=O)N1CCC[C@H]1C(=O)N[C@@H](CO)C(=O)N[C@@H](CO)C(=O)NCC(=O)N[C@@H](C)C(=O)N1CCC[C@H]1C(=O)N1CCC[C@H]1C(=O)N1CCC[C@H]1C(=O)N[C@@H](CO)C(N)=O)[C@@H](C)CC)[C@@H](C)CC)C(=O)O` [Example 24], for which the results for the Ki in assay [1] (setting [3]) and in assay [2] (setting [4]) were 0.0361 nM and 0.52 nM, respectively. Besides, on hGIPR (HEK293, 0.1% bovine casein and 1.0% human serum albumin), the Emax is 92.4 ± 5.97%. The concentration giving a half-maximal response (EC50) was 2.04 nM at hGLP-1R (0.1% bovine casein and 1.0% human serum albumin, 37° C., read-out: hGLP-1R EC50, nM (SEM, n)); 0.0063 nM on hGLP-1R (cAMP, incubated at 37° C., 0.1% bovine casein (no human serum albumin), read-out: hGLP-1R EC50, nM (SEM, n)); above 9950 nM at hGCGR (0.1% bovine casein and 1.0% human serum albumin, 37° C., geometric mean, read-out: hGCGR EC50, nM (SEM, n)); above 9950 nM on hGCGR (cAMP, incubated at 37° C., 0.1% bovine casein (no human serum albumin), geometric mean, read-out: hGCGR EC50, nM (SEM, n)).

Turning to `CC[C@H](C)[C@H](NC(=O)[C@H](CC(C)C)NC(=O)[C@](C)(Cc1ccc(O)cc1)NC(=O)[C@H](CCCCNC(=O)COCCOCCNC(=O)CC[C@H](NC(=O)CC[C@H](NC(=O)CC[C@H](NC(=O)CCCCCCCCCCCCC(=O)O)C(=O)O)C(=O)O)C(=O)O)NC(=O)[C@@H](NC(=O)[C@H](Cc1ccccc1)NC(=O)[C@H](CCCN)NC(=O)C(C)(C)NC(=O)[C@H](CCC(N)=O)NC(=O)[C@H](C)NC(=O)[C@H](CCC(N)=O)NC(=O)[C@H](CCCN)NC(=O)[C@H](CC(=O)O)NC(=O)[C@H](CC(C)C)NC(=O)[C@](C)(CC(C)C)NC(=O)[C@@H](NC(=O)C(C)(C)NC(=O)[C@H](Cc1ccncc1)NC(=O)[C@H](CC(=O)O)NC(=O)[C@H](CO)NC(=O)[C@@H](NC(=O)[C@](C)(Cc1ccccc1F)NC(=O)[C@@H](NC(=O)CNC(=O)[C@H](CCC(=O)O)NC(=O)C(C)(C)NC(=O)[C@@H](N)Cc1ccc(O)cc1)[C@@H](C)O)[C@@H](C)O)[C@@H](C)CC)[C@@H](C)CC)C(=O)N[C@@H](CCCCNC(=O)COCCOCCNC(=O)CC[C@H](NC(=O)CC[C@H](NC(=O)CC[C@H](NC(=O)CCCCCCCCCCCCC(=O)O)C(=O)O)C(=O)O)C(=O)O)C(=O)NCC(=O)NCC(=O)N1CCC[C@H]1C(=O)N[C@@H](CO)C(=O)N[C@@H](CO)C(=O)NCC(=O)N[C@@H](C)C(=O)N1CCC[C@H]1C(=O)N1CCC[C@H]1C(=O)N1CCC[C@H]1C(=O)N[C@@H](CO)C(N)=O` [Example 486], the results for the Ki in assay [1] (setting [3]) and in assay [2] (setting [4]) were 0.046 nM and 0.299 nM, respectively. Also, the Emax on hGIPR (setting [5]) turned out to be 88.2%; at hGIPR (HEK293, cAMP, 0.1% bovine casein, arithmetic mean), 94.1%. Moreover, the EC50 on hGIPR (setting [6]) is 0.0143 nM; on hGLP-1R (setting [7]), 0.166 nM; at hGCGR (setting [8]) it was above 9950 nM; on hGCGR (setting [9]), above 9950 nM.

`CCCCCCCCCCCC(=O)N[C@@H](CCC(=O)NCCOCCOCC(=O)NCCOCCOCC(=O)NCCCC[C@H](NC(=O)[C@H](CCCN)NC(=O)[C@H](CC(=O)O)NC(=O)[C@H](CC(C)C)NC(=O)[C@](C)(CC(C)C)NC(=O)[C@@H](NC(=O)C(C)(C)NC(=O)[C@H](CCCCNC(=O)COCCOCCNC(=O)COCCOCCNC(=O)CC[C@H](NC(=O)CCCCCCCCCCC)C(=O)O)NC(=O)[C@H](CC(=O)O)NC(=O)[C@H](CO)NC(=O)[C@@H](NC(=O)[C@](C)(Cc1ccccc1F)NC(=O)[C@@H](NC(=O)CNC(=O)[C@H](CCC(=O)O)NC(=O)C(C)(C)NC(=O)[C@@H](N)Cc1ccc(O)cc1)[C@@H](C)O)[C@@H](C)O)[C@@H](C)CC)C(=O)N[C@@H](C)C(=O)N[C@@H](CCC(N)=O)C(=O)NC(C)(C)C(=O)N[C@@H](Cc1ccncc1)C(=O)N[C@@H](Cc1ccccc1)C(=O)N[C@H](C(=O)N[C@H](CCC(=O)O)C(=O)N[C@@](C)(Cc1ccc(O)cc1)C(=O)N[C@@H](CC(C)C)C(=O)N[C@H](C(=O)N[C@@H](CCC(=O)O)C(=O)NCC(=O)NCC(=O)N1CCC[C@H]1C(=O)N[C@@H](CO)C(=O)N[C@@H](CO)C(=O)NCC(=O)N[C@@H](C)C(=O)N1CCC[C@H]1C(=O)N1CCC[C@H]1C(=O)N1CCC[C@H]1C(=O)N[C@@H](CO)C(N)=O)[C@@H](C)CC)[C@@H](C)CC)C(=O)O` [Example 415]: the results for the Ki in assay [1] (setting [3]) and in assay [2] (setting [4]) were 0.0152 nM and 0.156 nM, respectively. For the same compound, the maximal effect (Emax) at hGIPR (setting [5]) is 93.9%; on hGLP-1R (HEK293, cAMP, 37° C., 0.1% bovine casein, arithmetic mean, read-out: hGLP-1R Emax, % ± SEM) it was 109%. Further, the EC50 at hGIPR (setting [6]) is 0.00991 nM; at hGLP-1R (setting [7]), 0.122 nM; on hGCGR (setting [8]) it was above 9950 nM; at hGCGR (setting [9]) it was above 9950 nM.

On to `CC[C@H](C)[C@H](NC(=O)[C@H](CC(C)C)NC(=O)[C@](C)(Cc1ccc(O)cc1)NC(=O)[C@@H](CCC(=O)O)NC(=O)[C@@H](NC(=O)[C@H](Cc1ccccc1)NC(=O)[C@H](CCCCNC(=O)COCCOCCNC(=O)CC[C@H](NC(=O)CCCCCCCCCOc1ccc(C(=O)O)cc1)C(=O)O)NC(=O)C(C)(C)NC(=O)[C@H](CCC(N)=O)NC(=O)[C@H](C)NC(=O)[C@H](CCCCNC(=O)COCCOCCNC(=O)CC[C@H](NC(=O)CCCCCCCCCOc1ccc(C(=O)O)cc1)C(=O)O)NC(=O)[C@H](CCCN)NC(=O)[C@H](CC(=O)O)NC(=O)[C@H](CC(C)C)NC(=O)[C@](C)(CC(C)C)NC(=O)[C@@H](NC(=O)C(C)(C)NC(=O)[C@H](Cc1ccncc1)NC(=O)[C@H](CC(=O)O)NC(=O)[C@H](CO)NC(=O)[C@@H](NC(=O)[C@](C)(Cc1ccccc1F)NC(=O)[C@@H](NC(=O)CNC(=O)[C@H](CCC(=O)O)NC(=O)C(C)(C)NC(=O)[C@@H](N)Cc1ccc(O)cc1)[C@@H](C)O)[C@@H](C)O)[C@@H](C)CC)[C@@H](C)CC)C(=O)N[C@@H](CCC(=O)O)C(=O)NCC(=O)NCC(=O)N1CCC[C@H]1C(=O)N[C@@H](CO)C(=O)N[C@@H](CO)C(=O)NCC(=O)N[C@@H](C)C(=O)N1CCC[C@H]1C(=O)N1CCC[C@H]1C(=O)N1CCC[C@H]1C(=O)N[C@@H](CO)C(N)=O` [Example 360], for which the Ki is 0.046 nM in assay [1] and 0.673 nM in assay [2]. The EC50 was 0.0121 nM on hGIPR (hGIPR EC50, nM (SEM, n)); 0.301 nM at hGLP-1R (hGLP-1R EC50, nM (SEM, n), cAMP, 37° C., 0.1% bovine casein (no human serum albumin)); above 9950 nM on hGCGR (hGCGR EC50, nM (SEM, n), cAMP, 37° C., 0.1% bovine casein (no human serum albumin), geometric mean); above 9950 nM on hGCGR (hGCGR EC50, nM (SEM, n), cAMP, 37° C., 0.1% bovine casein and 1.0% human serum albumin, geometric mean (SEM, n)). Further, the maximum response (Emax) at hGLP-1R (HEK293, read-out: hGLP-1R Emax, % ± SEM, cAMP, 37° C., 0.1% bovine casein and 1.0% human serum albumin) turned out to be 97.1%; at hGLP-1R (HEK293, read-out: hGLP-1R Emax, % ± SEM, cAMP, 37° C., 0.1% bovine casein, arithmetic mean), 89.8%.
